From ChEMBL document CHEMBL3612055, “Design, synthesis and biological evaluation of 1,3-diphenyl-1H-pyrazole derivatives containing benzimidazole skeleton as potential anticancer and apoptosis inducing agents” (Eur J Med Chem, 2015)

How the values were obtained:
HaCaT = assay: Cytotoxic activity against human HaCaT cells assessed as reduction in cell growth incubated for 48 hrs by MTT assay; assay type: cell-based
MCF7 = assay: Anticancer activity against human MCF7 cells assessed as reduction in cell growth incubated for 48 hrs by MTT assay; assay type: functional, cell-based; details: MCF7, 48 h
A549 = assay: Anticancer activity against human A549 cells assessed as reduction in cell growth incubated for 48 hrs by MTT assay; assay type: functional, cell-based; details: A549, 48 h
HeLa = assay: Anticancer activity against human HeLa cells assessed as reduction in cell growth incubated for 48 hrs by MTT assay; assay type: functional, cell-based

| SMILES | IC50 (HaCaT) [µM] | IC50 (MCF7) [µM] | IC50 (A549) [µM] | IC50 (HeLa) [µM] |
| --- | --- | --- | --- | --- |
| O=Cc1cn(-c2ccccc2)nc1-c1ccc(Cl)cc1 | > 50 | 9.65 | 29.5 | 15.5 |
| COc1ccc2[nH]c(-c3cn(-c4ccccc4)nc3-c3ccccc3)nc2c1 | > 50 | 1.59 | 1.23 | 2.87 |
| O=Cc1cn(-c2ccccc2)nc1-c1ccc(F)cc1 | > 50 | 24.8 | 8.66 | 16.6 |
| COc1ccc(-c2nn(-c3ccccc3)cc2-c2nc3cc(C(F)(F)F)ccc3[nH]2)cc1 | > 50 | 5.73 | 4.82 | 2.76 |
| Cc1ccc2[nH]c(-c3cn(-c4ccccc4)nc3-c3ccc(F)cc3)nc2c1 | > 50 | 1.12 | 1.44 | 3.63 |
| COc1ccc(-c2nn(-c3ccccc3)cc2-c2nc3cc(Br)ccc3[nH]2)cc1 | > 50 | 1.83 | 6.37 | 1.06 |
| Clc1ccc(-c2nn(-c3ccccc3)cc2-c2nc3cc(Cl)c(Cl)cc3[nH]2)cc1 | > 50 | 48.3 | 19.1 | 12.1 |
| c1ccc(-c2nn(-c3ccccc3)cc2-c2nc3cc4ccccc4cc3[nH]2)cc1 | > 50 | 12.6 | 19.3 | 21.3 |
| Clc1ccc2[nH]c(-c3cn(-c4ccccc4)nc3-c3ccccc3)nc2c1 | > 50 | 1.96 | 2.37 | 3.48 |
| Clc1ccc(-c2nn(-c3ccccc3)cc2-c2nc3ccccc3[nH]2)cc1 | > 50 | 3.03 | 5.96 | 1.65 |
| Clc1ccc(-c2nn(-c3ccccc3)cc2-c2nc3cc4ccccc4cc3[nH]2)cc1 | > 50 | 13.9 | 7.73 | 8.13 |
| c1ccc(-c2nn(-c3ccccc3)cc2-c2nc3ccccc3[nH]2)cc1 | > 50 | 3.19 | 2.71 | 1.55 |
| Fc1ccc2[nH]c(-c3cn(-c4ccccc4)nc3-c3ccccc3)nc2c1 | > 50 | 2.43 | 1.72 | 3.61 |
| COc1ccc(-c2nn(-c3ccccc3)cc2-c2nc3cc(C)ccc3[nH]2)cc1 | > 50 | 6.61 | 5.07 | 3.29 |
| Fc1ccc(-c2nn(-c3ccccc3)cc2-c2nc3cc(Br)ccc3[nH]2)cc1 | 21.8 | 3.21 | 5.83 | 4.94 |
| Clc1ccc(-c2nn(-c3ccccc3)cc2-c2nc3cc(Br)ccc3[nH]2)cc1 | > 50 | 1.92 | 2.17 | 2.16 |
| Fc1ccc(-c2nn(-c3ccccc3)cc2-c2nc3cc(Cl)ccc3[nH]2)cc1 | > 50 | 2.23 | 1.32 | 2.77 |
| Fc1ccc2[nH]c(-c3cn(-c4ccccc4)nc3-c3ccc(Cl)cc3)nc2c1 | > 50 | 2.83 | 4.61 | 2.77 |
| Fc1ccc(-c2nn(-c3ccccc3)cc2-c2nc3cc(C(F)(F)F)ccc3[nH]2)cc1 | > 50 | 2.13 | 2.34 | 3.52 |
| Fc1ccc(-c2nn(-c3ccccc3)cc2-c2nc3ccccc3[nH]2)cc1 | > 50 | 3.2 | 1.51 | 2.33 |

| SMILES | IC50 (HaCaT) [µM] | IC50 (MCF7) [µM] | IC50 (A549) [µM] | IC50 (HeLa) [µM] |
| --- | --- | --- | --- | --- |
| O=c1[nH]cc(F)c(=O)[nH]1 [FLUOROURACIL] | 15.3 | 2.36 | 2.13 | 4.6 |
| Cc1cc2nc(-c3cn(-c4ccccc4)nc3-c3ccc(Cl)cc3)[nH]c2cc1C | > 50 | 13 | 17.7 | 21.8 |
| Fc1ccc(-c2nn(-c3ccccc3)cc2-c2nc3cc4ccccc4cc3[nH]2)cc1 | > 50 | 9.24 | 21.5 | 23.6 |
| Cc1ccc2[nH]c(-c3cn(-c4ccccc4)nc3-c3ccc(Cl)cc3)nc2c1 | > 50 | 8.23 | 4.64 | 5.36 |
| COc1ccc(-c2nn(-c3ccccc3)cc2-c2nc3ccccc3[nH]2)cc1 | > 50 | 2.54 | 2.36 | 3.67 |
| COc1ccc(-c2nn(-c3ccccc3)cc2-c2nc3cc(OC)ccc3[nH]2)cc1 | > 50 | 3.13 | 22.7 | 1.14 |
| COc1ccc2[nH]c(-c3cn(-c4ccccc4)nc3-c3ccc(F)cc3)nc2c1 | > 50 | 0.97 | 1.96 | 7.51 |
| FC(F)(F)c1ccc2[nH]c(-c3cn(-c4ccccc4)nc3-c3ccccc3)nc2c1 | 37.2 | 2.66 | 5.93 | 1.92 |
| Clc1cc2nc(-c3cn(-c4ccccc4)nc3-c3ccccc3)[nH]c2cc1Cl | 29.7 | 7.56 | 11.1 | 13.4 |
| COc1ccc(-c2nn(-c3ccccc3)cc2-c2nc3cc(Cl)ccc3[nH]2)cc1 | > 50 | 1.76 | 3.13 | 1.29 |
| COc1ccc2[nH]c(-c3cn(-c4ccccc4)nc3-c3ccc(Cl)cc3)nc2c1 | > 50 | 1.76 | 2.42 | 3.63 |
| FC(F)(F)c1ccc2[nH]c(-c3cn(-c4ccccc4)nc3-c3ccc(Cl)cc3)nc2c1 | 41.8 | 4.21 | 3.36 | 4.42 |
| Cc1cc2nc(-c3cn(-c4ccccc4)nc3-c3ccccc3)[nH]c2cc1C | > 50 | > 50 | 14.5 | 41.5 |
| Fc1ccc(-c2nn(-c3ccccc3)cc2-c2nc3cc(Cl)c(Cl)cc3[nH]2)cc1 | 44.6 | 6.93 | 15.7 | 11.6 |
| COc1ccc(-c2nn(-c3ccccc3)cc2-c2nc3cc(F)ccc3[nH]2)cc1 | > 50 | 1.51 | 1.98 | 1.74 |
| COc1ccc(-c2nn(-c3ccccc3)cc2-c2nc3cc(Cl)c(Cl)cc3[nH]2)cc1 | > 50 | 13.2 | 7.33 | 6.6 |
| COc1ccc(-c2nn(-c3ccccc3)cc2-c2nc3cc4ccccc4cc3[nH]2)cc1 | > 50 | 7.46 | 11.9 | 12.4 |
| Cc1ccc2[nH]c(-c3cn(-c4ccccc4)nc3-c3ccccc3)nc2c1 | > 50 | 5.94 | 3.61 | 6.56 |
| COc1ccc(-c2nn(-c3ccccc3)cc2-c2nc3cc(C)c(C)cc3[nH]2)cc1 | 21.4 | 12.8 | 5.85 | 8.93 |
| Cc1cc2nc(-c3cn(-c4ccccc4)nc3-c3ccc(F)cc3)[nH]c2cc1C | > 50 | 27.2 | > 50 | 10.2 |
